Data on one compound can be found in publication PMC6811774, “Potent, selective, and subunit‐dependent activation of TRPC5 channels by a xanthine derivative” (British Journal of Pharmacology, 2019).

In the test the target is T1, TRPC5-SYFP2 (TRPC5:C5 channels) (Homo sapiens, UniProt Q9UL62).
T1 construct: expressed in transfected cells
T1 sequence (Q9UL62 1-973): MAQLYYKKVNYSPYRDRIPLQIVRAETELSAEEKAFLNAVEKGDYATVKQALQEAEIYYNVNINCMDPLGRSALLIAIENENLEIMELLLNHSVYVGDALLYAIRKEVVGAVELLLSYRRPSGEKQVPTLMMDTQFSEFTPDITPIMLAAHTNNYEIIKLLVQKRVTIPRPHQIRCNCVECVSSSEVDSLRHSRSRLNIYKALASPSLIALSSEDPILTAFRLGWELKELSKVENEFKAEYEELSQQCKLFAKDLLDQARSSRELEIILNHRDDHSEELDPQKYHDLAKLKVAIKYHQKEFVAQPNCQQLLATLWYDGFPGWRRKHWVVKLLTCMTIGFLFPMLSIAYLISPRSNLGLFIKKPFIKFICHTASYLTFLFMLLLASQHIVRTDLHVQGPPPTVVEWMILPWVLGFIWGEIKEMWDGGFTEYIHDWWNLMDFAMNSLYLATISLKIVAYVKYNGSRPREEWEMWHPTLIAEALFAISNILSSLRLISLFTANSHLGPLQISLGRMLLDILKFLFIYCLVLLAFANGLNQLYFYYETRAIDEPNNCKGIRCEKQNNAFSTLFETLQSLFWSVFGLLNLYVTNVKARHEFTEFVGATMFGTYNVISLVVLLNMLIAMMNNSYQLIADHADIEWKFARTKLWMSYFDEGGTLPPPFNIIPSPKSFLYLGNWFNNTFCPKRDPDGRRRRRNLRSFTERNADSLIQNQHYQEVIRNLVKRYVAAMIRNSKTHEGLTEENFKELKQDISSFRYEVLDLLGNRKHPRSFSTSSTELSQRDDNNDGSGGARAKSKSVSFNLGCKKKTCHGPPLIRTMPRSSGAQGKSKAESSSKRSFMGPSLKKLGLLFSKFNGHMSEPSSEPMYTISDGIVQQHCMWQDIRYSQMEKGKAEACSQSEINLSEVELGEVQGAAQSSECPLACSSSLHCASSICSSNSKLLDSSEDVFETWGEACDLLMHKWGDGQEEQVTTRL
The test is described as follows: [Ca2+]i measurement (Fura-2, FlexStation) in (Tet+) HEK T-REx cells expressing hTRPC5-SYFP2. The format is cell-based. The text has this: To facilitate cloning of TRPC5‐SYFP2 and TRPC4‐SYFP2, a pcDNA™4/TO expression vector (ThermoFisher Scientific, Waltham, MA, USA), into which a four amino acid linker (ASAS) flanked by AgeI and SacII restriction sites had been introduced between EcoRI and XhoI restriction sites, was used (Naylor et al., 2016). Human TRPC4β was inserted between BamHI and AgeI restriction sites as described previously (Ludlow et al., 2017). Human TRPC5 (forward primer: 5′ GCTTGGTACCGCCACCATG 3′ and reverse primer: 5′ […] 3′) was inserted upstream of the linker between KpnI and AgeI restriction sites using hTRPC5/pcDNA™4/TO (Zeng et al., 2004) as a PCR template. Both constructs contained an N‐terminal Kozak sequence. SYFP2 was inserted downstream of the linker between SacII and XbaI restriction sites using pSYFP2‐C1 as a PCR template (forward primer, 5′ […] 3′; reverse primer, 5′ […] 3′). pSYFP2‐C1 was a gift from Dorus Gadella (Addgene plasmid #22878; http://n2t.net/addgene:22878; RRID:Addgene_22878; Kremers, Goedhart, van Munster, & Gadella, 2006). Plasmids were sequenced to verify identity.
HEK T‐REx™ cell line was transfected with TRPC5‐SYFP2 or TRPC4‐SYFP2 using FuGENE® HD transfection reagent. After 48 hr, cells were put under antibiotic selection using 400 μg·ml^−1 zeocin and 10 μg·ml^−1 blasticidin S (Invivogen, San Diego, California, USA). Medium changes were carried out regularly to remove dead cells. HEK T‐REx cells expressing tetracycline‐inducible human TRPC5, TRPC4–C1, and TRPC5–C1 were created as described previously (Akbulut et al., 2015; Ludlow et al., 2017; Rubaiy, Ludlow, Henrot, et al., 2017). TRPC5–C1 and TRPC4–C1 concatemers allow expression of functional channels with defined 2:2 stoichiometry that display ion permeability and current–voltage relationships distinct from those of homomeric TRPC4:C4 or TRPC5:C5 channels and consistent with those obtained upon co‐expression of TRPC1 with TRPC4 or TRPC5 (Ludlow et al., 2017; Rubaiy, Ludlow, Bon, & Beech, 2017; Rubaiy, Ludlow, Henrot, et al., 2017). Cells were cultured in DMEM‐F12 GlutaMAX (Invitrogen, Paisley, UK) containing 10% FBS (Sigma‐Aldrich, Gillingham, UK), with the addition of blasticidin (10 μg·ml^−1) and zeocin (400 μg·ml^−1) to maintain the stable incorporation of the tetracycline repressor and the channel of interest, respectively. Expression of proteins was induced by the addition of tetracycline (1 μg·ml^−1, 24 hr). Cells were maintained in a humidified incubator with 5% CO2 at 37°C. HEK 293 cells stably expressing tetracycline‐regulated human http://www.guidetopharmacology.org/GRAC/ObjectDisplayForward?objectId=494 were prepared similarly and have also been described previously (McHugh, Flemming, Xu, Perraud, & Beech, 2003). For experiments using transient co‐expression of TRPC1 and TRPC5, HEK cells at 40–60% confluency were transfected with pIRES2‐AcGFP1 and pIRES2‐DsRed‐Express2 plasmids containing human TRPC1 and TRPC5, respectively, using Lipofectamine 3000 (ThermoFisher Scientific, Yokohama, Japan). All experiments using transient expression were performed within 48 hr after transfection. A498 cells were cultured in Minimum Essential Medium containing Earle's salts (ThermoFisher Scientific, Loughborough, UK), supplemented with 10% FBS and penicillin–streptomycin (100 units per ml^−1, 100 μg·ml^−1; ThermoFisher Scientific, Loughborough, UK). CHO cells stably expressing http://www.guidetopharmacology.org/GRAC/ObjectDisplayForward?objectId=510 were maintained in Ham's Nutrient Mixture F12 (ThermoFisher Scientific, Loughborough, UK) supplemented with 10% FBS, penicillin–streptomycin, and 1 mg·ml^−1 G418 (InvivoGen, San Diego, California, USA). For experiments using hTRPC3 and hTRPC6, WT HEK 293 cells were transfected with hTRPC3 (Naylor et al., 2016) or hTRPC6 (cloned into pcDNA3) using jetPRIME® transfection reagent (VWR, Lutterworth, UK). Cells were assayed 48 hr after transfection. […]

Molecules are shown by their SMILES.

Broadly, the IC50 is the concentration needed to halve the response being measured. As a reminder, the EC50 is the concentration needed to bring the measured effect to its halfway point. Turning to `Cn1c(=O)n(CCCO)c(=O)c2c1nc(Oc1ccc(Cl)c(OC(F)(F)F)c1)n2Cc1ccc(Cl)cc1` [AM237], the “Hill slope, suppression of EA response” value (10 nM EA) is listed as -2.2. Also, for the setting “0.3 to 1 nM AM237, 30 min pre-incubation, 10 μM S1P”, the “Effect on S1P-mediated [Ca2+]i response” value is listed as “no significant effect”. For the same compound, the “Effect on [Ca2+]i in the absence of extracellular Ca2+” value (0.3–300 nM, Ca2+-free SBS with 0.4 mM EGTA) is on record as “did not increase”. Further, the “Effect on S1P-mediated activation of TRPC5:C5” value (3–300 nM AM237, 30 min pre-incubation, 10 μM S1P) was “significantly increased”. Also, the IC50 (30 min pre-incubation, then 10 nM EA, read-out: Relative IC50, suppression of EA-mediated [Ca2+]i response) was found to be 13 nM. Further, under “Control (DMSO pretreatment), competition experiment, read-out: EC50, activation”, the EC50 came out at 10 nM. In addition, under “co-application of 10 μM S1P and 0.3–300 nM AM237”, the “Effect on S1P response upon simultaneous addition” value is “increases of the responses to S1P”. Besides, the “Hill slope, activation” value (hTRPC5-SYFP2 concentration–response curve) amounted to 1.4.
